The record followed here is patent publication US8242166B2, “C(10) ethyl ester and C(10) cyclopropyl ester substituted taxanes” (Florida State University Research Foundation, Inc., priority 2008, dated 2012).

pIC50: −log10 of the molar value. Where two headings read alike, the source gives them in different places.

One series relates to HT29. The experiment in a line: MTT cytotoxicity (IC50), HT29. The format is cell-based. The conditions noted are these: Homo sapiens, HT-29, 72 h, read-out: IN Vitro IC50 (nm) HT29. The method, then:
(§1) Compound 17932 was tested in four of these cell lines, while the remaining compounds were tested in all of these cell lines. All cell lines were maintained in RPMI-1640 tissue culture medium (TCM, supplemented with antibiotics and 10% fetal bovine serum) and cultured at 37° C. in humidified air containing 5% CO2. To assess the antiproliferative effects of the test compounds, 172 μL of tumor cell suspension (1.45×10^4 cells/ml) were added to each well of a 96-well plate and incubated for 24 h at 37° C. in 5% CO2 in air to allow cells to adhere. Seven 2-fold drug dilutions in TCM/DMSO were performed in triplicate in separate 96-well plates and 28 μL was transferred to the wells containing tumor cells (200 μL final volume/0.1% DMSO). Plates were incubated for 72 h and cell viability was determined by adding 50 μL of warm TCM containing 5 mg/mL MTT (3-[4,5-dimethylthiazol-2-yl]-2,5-diphenyltetrazolium bromide) to each well and incubating for 1 h at 37° C. Plates were processed and the absorbances of the resulting solutions were measured by a plate reader at 570 nm. […] (GraphPad Prism version 4.00 for Windows). Studies were conducted by Taxolog, Inc., Tallahassee, Fla.

The test system of another series is PANC-1. As to the kind of experiment: MTT cytotoxicity (IC50), PANC-1. The class given is cell-based. The conditions noted are these: Homo sapiens, 72 h, read-out: IN Vitro IC50 (nm) Panc. The method, then:
as §1

The subject of series [1] is HT29 human tumor xenografts. As to the kind of experiment: HT29 xenograft study e139 (Example 23). The class given is in vivo, nude mice.
The subject of a further series is HCT116. The experiment in a line: MTT cytotoxicity (IC50), HCT116. The class given is cell-based. Conditions: Homo sapiens, HCT-116, 72 h, read-out: IN Vitro IC50 (nm) HCT116. The method, then:
as §1, with “All” for “Compound 17932 was tested in four of these cell lines, while the remaining compounds were tested in all of these cell lines. All”

For another series, the system named is DLD-1. The experiment in a line: MTT cytotoxicity (IC50), DLD-1. The conditions noted are these: Homo sapiens. The class given is cell-based. The method, then: as §1
Another series deals with SK-MEL-28. As to the kind of experiment: MTT cytotoxicity (IC50), SK-MEL-28. Conditions: Homo sapiens, 72 h, read-out: IN Vitro IC50 (nm) ske-mel28. The format is cell-based. The method, then: as §1
The test system of the next series is A375. As to the kind of experiment: MTT cytotoxicity (IC50), A375. The format is cell-based. The conditions noted are these: Homo sapiens, A-375. The method, then:
as §1

The test system of another series is SNB-19. The experiment in a line: MTT cytotoxicity (IC50), SNB-19. The format is cell-based. Conditions: Homo sapiens, 72 h, read-out: IN Vitro IC50 (nm) SNB19. The method, then:
as §1

A further series has as its system OVCAR4. As to the kind of experiment: MTT cytotoxicity (IC50), OVCAR4. The format is cell-based. Conditions: Homo sapiens, OVCAR-4, 72 h, read-out: IN Vitro IC50 (nm) OVCAR4. The method, then: as §1
A further series deals with MALME-3. As to the kind of experiment: MTT cytotoxicity (IC50), MALME-3. The class given is cell-based. The conditions noted are these: Homo sapiens, 72 h, read-out: IN Vitro IC50 (nm) Malme3. The method, then:
as §1

For another series, the system named is HOP-18. The experiment in a line: MTT cytotoxicity (IC50), HOP-18. Conditions: Homo sapiens, 72 h, read-out: IN Vitro IC50 (nm) HOP18. The class given is cell-based. The method, then:
as §1

In a further series the test system is A549. As to the kind of experiment: MTT cytotoxicity (IC50), A549. Conditions: Homo sapiens, 72 h, read-out: IN Vitro IC50 (nm) A549. The format is cell-based. The method, then:
as §1

A further series deals with TK-10. The experiment in a line: MTT cytotoxicity (IC50), TK-10. The class given is cell-based. The conditions noted are these: Homo sapiens, 72 h, read-out: IN Vitro IC50 (nm) TK10. The method, then:
as §1

The next series concerns 786-0. As to the kind of experiment: MTT cytotoxicity (IC50), 786-0. The format is cell-based. The conditions noted are these: Homo sapiens. The method, then: as §1
The subject of series [2] is human HT29 colon carcinoma xenografts.
Where [3] appears, read: MTT, 72 h, read-out: IN Vitro IC50 (nm) DLD1.
Where [4] appears, read: Resistance MDR1+, read-out: DLD1 Colon (Table 4, quantity not named; IC50 values as Table 2).

In the case of `CC(=O)O[C@@]12CO[C@@H]1C[C@H](O)[C@@]1(C)C(=O)[C@H](OC(=O)C3CC3)C3=C(C)[C@@H](OC(=O)[C@H](O)[C@@H](NC(=O)OC4CCCC4)c4cccs4)C[C@@](O)([C@@H](OC(=O)c4ccccc4)C12)C3(C)C` (stereo partly shown) [Compound 17932], the pIC50 in the series with HT29 is 9.05; with PANC-1 it was 8.92; with HCT116, 9.22; in the series on DLD-1 (setting [3]) it was 8.85; with DLD-1 (setting [4]), 8.85. Moreover, the “MTV (Day 61)” value in [1] (20 mg/kg i.v. q4d×4) turned out to be 78 mm^3. Also, the PR responses in series [1] (20 mg/kg i.v. q4d×4, six mice) was 5. For the same compound, in [1] (20 mg/kg iv q4d × 4), the “Day 51 mm^3 (tumor size)” value is recorded as 99.7 mm^3. The “Day 54 mm^3 (tumor size)” value in series [1] (20 mg/kg iv q4d × 4) came out at 109.4 mm^3. Besides, in [1] (20 mg/kg iv q4d × 4), the “Max. BW Loss %; Day” value is on record as −19.3%; Day 16. Besides, in [1] (20 mg/kg iv q4d × 4, N=6), the “Number of Death NTR” value turned out to be 0. Also, the “Number of Death TR” value in [1] (20 mg/kg iv q4d × 4, N=6) is reported as 0.
On to `CC(=O)O[C@H]1C(=O)[C@@]2(C)[C@H]([C@H](OC(=O)c3ccccc3)[C@]3(O)C[C@H](OC(=O)[C@H](O)[C@@H](NC(=O)c4ccccc4)c4ccccc4)C(C)=C1C3(C)C)[C@]1(OC(C)=O)CO[C@@H]1C[C@@H]2O` [Paclitaxel, paclitaxel, reference compound], for which the pIC50 with SK-MEL-28 is 8.27; in the series with A375 (MTT, 72 h, read-out: IN Vitro IC50 (nm) A375), 8.10; with A375 (Resistance MRP9, read-out: A375 Melanoma (Table 4, quantity not named; IC50 values as Table 2)), 8.10; with HT29, 8.55; with PANC-1, 8.39; with SNB-19, 8.21. The pIC50 is 8.54 in the series with OVCAR4; 8.19 in the series on MALME-3; less than 8.00 in the series on DLD-1 (setting [3]); 7.39 in the series on DLD-1 (setting [4]); 8.14 with HOP-18; 8.42 in the series with A549. The pIC50 in the series with TK-10 was 8.32; in the series on 786-0 (MTT, 72 h, read-out: IN Vitro IC50 (nm) 786-0), less than 8.00; with 786-0 (Resistance MDR1+, read-out: 786-0 Renal (Table 4, quantity not named; IC50 values as Table 2)) it was less than 8.00. Moreover, in series [2] (30 mg/kg q4d×4), the “antitumor activity” value is recorded as “relatively weak activity”. Also, the “D 38 TTE” value in [2] (mouse, in vivo) was 27.5 ± 1.9 (6) days. Moreover, in [2] (mouse, in vivo), the “Number of Death NTR” value is 0. Further, the “Number of Death TR” value in series [2] (mouse, in vivo) is listed as 0.
